In patent US11286263B2, “Macrocyclic fluorine substituted indole derivatives” (The Broad Institute, Inc., priority 2017, dated 2022):
“And” between values parts separate entries of the source, which are not always exact repeats. Equal values may be shown once. Read-outs that look alike come from different tables or passages of the source.

Key:
[1] = amine bond, Cs2CO3
MCL-1 = MCL-1 (Homo sapiens (Human), UniProt Q07820, K194A/K197A/R201A); assay: Protein-protein interaction assay MCL-1/Noxa BH3 peptide (MCL-1 assay), TR-FRET; type: binding; conditions: MCL-1/Noxa BH3 peptide TR-FRET; median
Method: Protein-Protein Interaction Assay: MCL-1/Noxa BH3 Peptide (MCL-1 Assay)
The dose-dependent inhibition by the compounds described in this invention of the interaction between MCL-1 and the BH3 domain of Noxa (both human) was determined using a steady state binding competition assay with time-resolved fluorescence energy transfer (TR-FRET) readout. For that purpose MCL-1 (amino acids 173-321, N-terminal fused to Maltose Binding Protein (MBP) SEQ ID 1)) and a synthetic Noxa BH3-derived peptide of sequence Biotin-PEG2-PEG2-PAELEVE-Nva-ATQLRRFGDKLNFRQKLL-amide (SEQ ID 2) served as protein receptor and tracer ligand respectively. The MBP-MCL-1 was purchased from Beryllium (Bedford, Mass., USA). The expression and purification of this protein construct has been described elsewhere (DOI:10.1371/journal.pone.0125010). The Noxa BH3-derived peptide can be obtained from e.g. Biosyntan (Berlin, Germany).
In the assay 11 different concentrations of each compound (0.1 nM, 0.33 nM, 1.1 nM, 3.8 nM, 13 nM, 44 nM, 0.15 μM, 0.51 μM, 1.7 μM, 5.9 μM and 20 μM) were typically measured as duplicates in the same microtiter plate. For that, 100-fold concentrated DMSO solutions were prepared by serial dilutions (1:3.4) of a 2 mM stock solution in a clear, 384-well microtiter plate (Greiner Bio-One, Frickenhausen, Germany). From there, 50 nl were transferred in a dark test plate (Greiner Bio-One, Frickenhausen, Germany). The assay was initiated by addition of 2 μl of a 2,5-fold concentrated MBP-MCL-1 solution (usually for a 1 nM end concentration in 5 μl reaction volume) in aqueous assay buffer [50 mM Tris/HCl pH 7, 100 mM sodium chloride (NaCl), 50 mM potassium fluoride (KF), 0.005% Tween-20, 2 mM DTT, 0.1% bovine gamma globulin (BGG)] to the compounds in the assay plate. This was followed by a 10-minute incubation step at 22° C. for pre-equilibration of the putative complex between MBP-MCL-1 and the compounds. After that, 3 μl of a 1.67-fold concentrated solution (in assay buffer) consisting of Noxa BH3-derived peptide (1 nM end concentration) and TR-FRET detection reagents [1.67 nM anti-MBP-Eu cryptate and 1.67 nM streptavidin-XL665 (both from Cisbio Bioassays, Codolet, France)], were added.
The mixture was incubated in the dark for one hour at 22° C. and then overnight at 4° C. The formation of MCL-1/Noxa complexes was determined by measuring the resonance energy transfer of the anti-MBP-Eu-cryptate antibody to the streptavidin-XL665 present in the reaction. For that purpose, the fluorescence emission at 620 nm and 665 nm after excitation at 330-350 nm was measured in a TR-FRET measuring instrument, for instance a Rubystar or a Pherastar (both from BMG Lab Technologies, Offenburg, Germany) or a Viewlux (Perkin-Elmer). The ratio of the emission at 665 nm and at 622 nm was used as indicator of the amount of MCL-1/NOXA complexes present.
The resulting data (ratio) were normalized, taking 0% inhibition as the mean value of control measurements (usually 32 data points) where all reagents were included. In this case 50 nl DMSO were used instead of compounds. A 100% inhibition corresponded to the mean value of control measurements (usually 32 data points) where all reagents except MCL-1 were included. IC50 values were determined by regression analysis based on a 4 parameter equation (minimum, maximum, IC50, Hill; Y=Max+(Min−Max)/(1+(X/IC50)^Hill) using the Screener Software (Genedata).

SUDHL5 [2] = assay: Induction of caspase-3/7 activity, SUDHL5 (Assay 4); type: cell-based; conditions: Homo sapiens, SU-DHL-5, 3 h, SUDHL5 cells, Caspase-Glo 3/7, median
Method: (§1) Induction of Caspase-3/7 Activity upon Treatment of Cells with Selected Compounds
(§2) The BH3-domain of MCL-1 sequesters pro-apoptotic proteins, thereby inhibiting apoptosis. In contrast, MCL-1 inhibitors are expected to antagonize this effect leading to an increase in apoptosis, which can be determined by measuring the activity of caspase-3/7.
(§3) The activity of caspase-3/7 was determined in DLBCL (Diffuse large B-cell lymphoma) cell lines (SUDHL5 and SUDHL10) upon treatment with different compounds, using the Caspase-Glo® 3/7 reagent from Promega (G8092).
(§4) Rim wells were excluded. The cells were incubated for 3 h hours in a humidified incubator at 37° C.
(§5) For the evaluation of the results, the background measured with “medium-only” was subtracted from all other values. […] The Bella DRC Master Sheet was used to calculate EC50s, with fixed C0=1 and Cl=plateau/max induction for the reference compound.

SUDHL10 [3] = assay: Induction of caspase-3/7 activity, SUDHL10 (Assay 4); type: cell-based; conditions: SUDHL10 cells
Method: as §1, §2, §3, §4, §5

SUDHL5 [4] = assay: Antiproliferation assay SUDHL5 (Assay 7); type: cell-based; conditions: SUDHL5 cells, CellTiter-Glo, median, read-out: IC50 Antiproli SUDHL5 [M] (median)
Method: (§6) Assessment of the Anti-Proliferative Effect of Compounds in Different Cell Lines
(§7) The impact of compounds on the proliferation of different cell lines was assessed using the CellTiter-Glo® Luminescent Cell Viability reagent from Promega (G7573).
(§8) In parallel, cells were plated in a reference (day 0) plate for time zero determination.
(§9) Rim wells were excluded. The cells were incubated for 72 h hours in a humidified incubator at 37° C. The day 0 plate was measured by adding 30 μL/well of CTG solution (CellTiter-Glo® Luminescent Cell Viability reagent, Promega G7573) to time zero wells in the reference plate followed by a 10 minutes incubation and luminescence reading at 0.1 ms. using the PHERAstar FS microplate reader (BMG Labtech).
(§10) After 72 h incubation, the treated plates were measured in the same way as the day 0 plate mentioned above.

MV-4-11 = assay: Antiproliferation assay MV-4-11 (Assay 7); type: cell-based; conditions: MV-4-11 cells, CellTiter-Glo, single determinations, read-out: IC50 Antiproli MV-4-11
Method: as §6, §7, §8, §9, §10

AMO-1 = assay: Antiproliferation assay AMO-1 (Assay 7); type: cell-based; conditions: AMO-1 cells, CellTiter-Glo, single determinations, read-out: IC50 Antiproli AMO-1
Method: as §6, §7, §8, §9, §10

SK-BR-3 = assay: Antiproliferation assay SK-BR-3 (Assay 7); type: cell-based; conditions: Homo sapiens, SK-BR-3, 72 h, SK-BR-3 cells, CellTiter-Glo, single determinations, read-out: IC50 Antiproli SK-BR-3
Method: as §6, §7, §8, §9, §10

A2780 = assay: Antiproliferation assay A2780 (Assay 7); type: cell-based; conditions: A2780 cells, CellTiter-Glo, single determinations, read-out: IC50 Antiproli A2780
Method: as §6, §7, §8, §9, §10

SUDHL5 [5] = assay: Induction of cytotoxicity, SUDHL5 (Assay 6); conditions: read-out: IC50 Cytotox SUDHL5 [M] (median), SUDHL5 cells, 5 h, CellTiter-Glo
Method: In principle, compounds that induce apoptosis will concomitantly induce cell cytotoxicity. Therefore, cytotoxicity assays were run in parallel in SUDHL5 and SUDHL10 cells.
The different cell lines were plated in culture medium (RPMI 1640 [GIBCO #22400-089] supplemented with 10% Fetal Bovine Serum) at a density of 3,300 cells in 30 μl/well in a sterile, solid black, flat bottom, polystyrene, TC-treated 384-well microplate (Corning #3571) using Multidrop Combi Reagent Dispenser. As a control, medium without cells was also added to the plate. Cells were incubated in a humidified incubator at 37° C. overnight. On the next day, the cells were treated with compounds (stock solution, 10 mM in DMSO) using the HP D300 Digital Dispenser in a concentration range of 3.3×10e-5 M (33 μM) to 5×10e-9 M (5 nM) in a single-dot curve with at least 16 dilutions and a DMSO concentration of 0.33%. Rim wells were excluded. The cells were incubated for 5 h hours in a humidified incubator at 37° C. After this incubation, 30 μl of CellTiter-Glo® Luminescent Cell Viability reagent (Promega, G7573) was added to each well using the Multidrop Combi Reagent Dispenser, followed by 15 min incubation on a shaker at room temperature. Finally, luminescence was read at 0.1 ms, with a gain of 3000 using the PHERAstar FS microplate reader (BMG Labtech).
The Bella DRC Master Sheet was used to calculate IC50s, with fixed CI=0 and C0=1.

SUDHL10 [6] = assay: Induction of cytotoxicity, SUDHL10 (Assay 6); conditions: read-out: IC50 Cytotox SUDHL10 [M] (median), SUDHL10 cells, 5 h, CellTiter-Glo
SUDHL10 [7] = assay: Antiproliferation assay SUDHL10 (Assay 7); type: cell-based; conditions: Homo sapiens, SU-DHL10; SUDHL10 cells, 72 h, CellTiter-Glo; median; read-out: IC50 Antiproli SUDHL10 [M] (median)
Method: as §6, §7, §8, §9, §10

HMC-1-8 = assay: Antiproliferation assay HMC-1-8 (Assay 7); type: cell-based; conditions: HMC-1-8 cells, 72 h, CellTiter-Glo; single determinations; read-out: IC50 Antiproli HMC-1-8
Method: as §6, §7, §8, §9, §10

[8] = Homo sapiens, SU-DHL10, 3 h, Caspase-Glo 3/7, median

Sequence of MCL-1 (Q07820 whole entry K194A/K197A/R201A, looked up): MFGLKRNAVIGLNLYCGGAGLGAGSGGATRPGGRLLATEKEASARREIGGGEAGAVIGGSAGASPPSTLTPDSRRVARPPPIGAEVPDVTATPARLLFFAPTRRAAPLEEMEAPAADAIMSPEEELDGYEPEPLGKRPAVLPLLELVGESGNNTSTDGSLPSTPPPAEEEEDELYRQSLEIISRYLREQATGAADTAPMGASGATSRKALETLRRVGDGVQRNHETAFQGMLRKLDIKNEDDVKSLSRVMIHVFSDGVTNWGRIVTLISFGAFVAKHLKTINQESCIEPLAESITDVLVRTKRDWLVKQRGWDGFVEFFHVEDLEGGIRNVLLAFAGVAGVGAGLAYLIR

SMILES | IC50 (MCL-1) [nM] | EC50 (SUDHL5 [2]) [nM] | EC50 (SUDHL10 [3]; [8]) [nM] | IC50 (SUDHL5 [4]; Homo sapiens, SU-DHL-5, 72 h) [M] | IC50 (AMO-1; Homo sapiens, AMO1, 72 h) [nM] | IC50 (A2780; Homo sapiens, A2780, 72 h) [nM] | IC50 (SUDHL5 [5]; Homo sapiens, SU-DHL-5, 5 h) [M] | IC50 (SUDHL10 [6]; Homo sapiens, SU-DHL10, 5 h) [M] | IC50 (SUDHL10 [7]) [M] | IC50 (AMO-1; 72 h) | other results
CCOC(=O)c1c(CCCO)c2ccc(F)c3c2n1CCCCN(C)Cc1nn(C)c(CC)c1-3 |  |  |  |  |  |  |  |  |  |  | ring closure, yield of all isomers ([1]; from CCOC(=O)c1c(CCCO[Si](C)(C)C(C)(C)C)c2ccc(F)c(-c3c(CBr)nn(C)c3CC)c2n1CCCCN(C)C(=O)OC(C)(C)C, acetonitrile, 44.5 mM, 60.0 °C, 6.0 h, 2 steps): 46%
CCOC(=O)c1c(CCCOc2cccc3ccccc23)c2ccc(F)c3c2n1CCCCNCc1nn(C)c(C)c1-3 |  |  |  |  |  |  |  |  |  |  | ring closure, yield of all isomers ([1]; from CCOC(=O)c1c(CCCOc2cccc3ccccc23)c2ccc(F)c(-c3c(CBr)nn(C)c3C)c2n1CCCCN, DMF, 10.0 mM, 65.0 °C, 17.0 h): 48.6%
CCc1c2c(nn1C)COCCCCn1c(C(=O)O)c(CCCOc3cccc4ccccc34)c3ccc(F)c-2c31 (racemic) [Example 6, (rac)-3-ethyl-4-fluoro-2-methyl-7-[3-(naphthalen-1-yloxy)propyl]-2,10,11,12,13,15-hexahydro-pyrazolo[4′,3′:9,10][1,6]oxazacycloundecino[8,7,6-hi]indole-8-carboxylic acid] | 1.1 | 400 | 1100 | 9.8e-07 | 2630 | 14500 | 6.4e-07 | 1.3e-06 |  |  | IC50 (MV-4-11; Homo sapiens, MV4-11, 72 h): 3830 nM; IC50 (MV-4-11; 72 h, listed as 06): 2820 nM and 2760 nM and 2350 nM; IC50 (SK-BR-3): 7290 nM; IC50 (A2780; 72 h, listed as 06): 10600 nM and 13100 nM
Cc1c2c(nn1C)COCCCCn1c(C(=O)O)c(CCCOc3cccc4cc(F)ccc34)c3ccc(F)c-2c31 (racemic) [Example 12, (rac)-13-fluoro-1-(3-((6-fluoronaphthalen-1-yl)oxy)propyl)-11,12-dimethyl-4,5,6,7,9,11-hexahydropyrazolo[4′,3′:9,10][1]oxa[6]azacycloundecino[8,7,6-hi]indole-2-carboxylic acid] | 0.85 | 480 | 800 | 6.5e-07 | 1510 | 4680 | 6e-07 | 8.2e-07 | 7.2e-07 | 869 nM | 
CCc1c2c(nn1C)COCCCCn1c(C(=O)O)c(CCCOc3cccc4cc(F)ccc34)c3ccc(F)c-2c31 (racemic) [Example 21, (rac)-12-ethyl-13-fluoro-1-(3-((6-fluoronaphthalen-1-yl)oxy)propyl)-11-methyl-4,5,6,7,9,11-hexahydropyrazolo[4′,3′:9,10][1]oxa[6]azacycloundecino[8,7,6-hi]indole-2-carboxylic acid] | 0.86 | 350 | 900 | 7.3e-07 | 1220 | 3470 | 5.1e-07 | 8.5e-07 | 6.3e-07 | 942 nM and 1120 nM | 
CCc1nn(C)c2c1-c1c(F)ccc3c(CCCOc4cccc5cc(F)ccc45)c(C(=O)O)n(c13)CCCCOC2 (racemic) [Example 38, (rac)-12-ethyl-13-fluoro-1-(3-((6-fluoronaphthalen-1-yl)oxy)propyl)-10-methyl-4,5,6,7,9,10-hexahydropyrazolo[4′,3′:9,10][1]oxa[6]azacycloundecino[8,7,6-hi]indole-2-carboxylic acid] | 1.1 | 870 | 2000 | 9.3e-07 | 2350 |  | 1e-06 | 1.4e-06 | 1e-06 | 2460 nM and 1610 nM | 
CCc1c2c(nn1C)COCCCCn1c(C(=O)O)c(CCCOc3cccc4cc(F)ccc34)c3ccc(F)c-2c31 (single isomer, unassigned; enantiomer 2) [Example 25, 3-ethyl-4-fluoro-7-{3-[(6-fluoronaphthalen-1-yl)oxy]propyl}-2-methyl-2,10,11,12,13,15-hexahydropyrazolo[4′,3′:9,10][1,6]oxazacycloundecino[8,7,6-hi]indole-8-carboxylic acid (enantiomer 2)] | 13 |  |  |  |  |  |  |  |  | 32800 nM | EC50 (SUDHL10 [3]; 3 h, Caspase-Glo 3/7, median): > 33000 nM; IC50 (SUDHL5 [4]; 72 h): 8.1e-06 M; IC50 (HMC-1-8): 20900 nM; IC50 (SUDHL5 [5]): 1.2e-05 M; IC50 (SUDHL10 [6]): 2.2e-05 M
